Reference: patent US4401812A, “Anthracycline antibiotics” (Hoffmann-La Roche Inc., priority 1980, dated 1983)
Values after ≈ are worked out from the molar mass of the structure shown. Read-outs that look alike come from different tables or passages of the source.

Tests used:
[1] = tested on: Staphylococcus aureus 209P IAM-1011; assay: in vitro MIC, agar streak method; format: cell-based; conditions: Heart infusion agar
[2] = tested on: Candida tropicalis ATCC-13803; assay: in vitro MIC, agar streak method; format: cell-based
From the text: (§1) | ^(2) Sabouraud dextrose agar

[3] = tested on: Candida albicans ATCC-10231; assay: in vitro MIC, agar streak method; format: cell-based
From the text: as §1

P388 leukaemia = assay: Antitumor effect against P388 leukaemia in CDF1 mice; format: in vivo; conditions: Mus musculus, read-out: Mean survival (T/C, %); for response vs control in vivo at 1.88 mg/kg: 1.88 mg/kg/day i.p.; for response vs control in vivo at 3.75 mg/kg: 3.75 mg/kg/day i.p.; for response vs control in vivo at 7.5 mg/kg: 7.5 mg/kg/day i.p.; for response vs control in vivo at 15 mg/kg: 15.0 mg/kg/day i.p.
Method: The anthracycline glycosides provided by the present invention were tested against P388 leukaemia in mice. When CDF1 mice are inoculated with 1×10^6 cells of P388 intraperitoneally and each of the antibiotics is administered intraperitoneally on days 1, 5 and 9, the survival time of the treated mice is prolonged as shown in Table 5 hereinafter.

[4] = tested on: Staphylococcus epidermidis IFO-12993; assay: in vitro MIC, agar streak method; format: cell-based; conditions: Heart infusion agar
From the text: (§2) | ^(1) Heart infusion agar

[5] = tested on: Micrococcus flavus ATCC-10240; assay: in vitro MIC, agar streak method; format: cell-based
From the text: as §2

[6] = tested on: Bacillus subtilis IAM-1027; assay: in vitro MIC, agar streak method; format: cell-based
From the text: as §2

[7] = tested on: Escherichia coli NIHJ IFO-12734; assay: in vitro MIC, agar streak method; format: cell-based
From the text: as §2

Bacillus cereus Rol79B = assay: in vitro MIC, agar streak method; format: cell-based; conditions: Heart infusion agar
From the text: as §2

[8] = tested on: Escherichia coli K-12 IAM-1264; assay: in vitro MIC, agar streak method; format: cell-based
From the text: as §2

Sarcina lutea IAM1009 = assay: in vitro MIC, agar streak method; format: cell-based; conditions: Heart infusion agar
in vivo = conditions: mouse, ip, mice, single i.p. injection, judged 72 hours after, read-out: acute intraperitoneal LD50
Method: The acute intraperitoneal LD50 in mice judged 72 hours after a single injection of the antibiotics is about 90 mg/kg for auramycin C, auramycin D, sulfurmycin C and sulfurmycin D, 40~80 mg/kg for auramycin G and sulfurmycin G and 20~40 mg/kg for auramycin E and sulfurmycin E.

[9] = tested on: Staphylococcus aureus 209P Stf; assay: in vitro MIC, agar streak method; format: cell-based; conditions: Heart infusion agar
From the text: as §2

[10] = tested on: Mycobacterium smegmatis IFO-13167; assay: in vitro MIC, agar streak method; format: cell-based; conditions: Mycolicibacterium smegmatis, IFO13167
From the text: as §2

[11] = tested on: Pseudomonas aeruginosa IFO-12689; assay: in vitro MIC, agar streak method; format: cell-based; conditions: IFO12689, Heart infusion agar
From the text: as §2

[12] = Staphylococcus aureus, read-out: MIC
[13] = ATCC13803, Candida tropicalis ATCC-13803, Sabouraud dextrose agar, read-out: MIC
[14] = ATCC10231, Candida albicans ATCC-10231, Sabouraud dextrose agar, read-out: MIC
[15] = ip, 1.5 mg/kg/day i.p., days 1, 5 and 9, 1×10^6 P388 cells i.p., CDF1 mice
[16] = ip, 3.0 mg/kg/day i.p., days 1, 5 and 9, 1×10^6 P388 cells i.p., CDF1 mice
[17] = ip, 6.0 mg/kg/day i.p., days 1, 5 and 9, 1×10^6 P388 cells i.p., CDF1 mice
[18] = ip, 12.0 mg/kg/day i.p., days 1, 5 and 9, 1×10^6 P388 cells i.p., CDF1 mice
[19] = Staphylococcus epidermidis, IFO12993, Staphylococcus epidermidis IFO-12993, read-out: MIC
[20] = Micrococcus flavus, ATCC10240, Micrococcus flavus ATCC-10240, Heart infusion agar, read-out: MIC
[21] = IAM1027, Bacillus subtilis IAM-1027, Heart infusion agar, read-out: MIC
[22] = IFO12734, Escherichia coli NIHJ IFO-12734, Heart infusion agar, read-out: MIC
[23] = IAM1264, Escherichia coli K-12 IAM-1264, Heart infusion agar, read-out: MIC
[24] = Micrococcus luteus, IAM1009, Sarcina lutea IAM-1009, read-out: MIC
[25] = ip, days 1, 5 and 9, 1×10^6 P388 cells i.p., CDF1 mice
[26] = Candida tropicalis ATCC-13803, Sabouraud dextrose agar
[27] = Candida albicans ATCC-10231, Sabouraud dextrose agar
[28] = Staphylococcus epidermidis IFO-12993
[29] = Micrococcus flavus ATCC-10240, Heart infusion agar
[30] = Bacillus subtilis IAM-1027, Heart infusion agar
[31] = Escherichia coli NIHJ IFO-12734, Heart infusion agar
[32] = Escherichia coli K-12 IAM-1264, Heart infusion agar

SMILES | MIC [1, 12] [µg/mL] | MIC [2, 13] [µg/mL] | MIC [3, 14] [µg/mL] | response vs control in vivo at 1.5 mg/kg (P388 leukaemia; [15]) [%] | response vs control in vivo at 3 mg/kg (P388 leukaemia; [16]) [%] | response vs control in vivo at 6 mg/kg (P388 leukaemia; [17]) [%] | response vs control in vivo at 12 mg/kg (P388 leukaemia; [18]) [%] | MIC [5, 20] [µg/mL] | MIC [6, 21] [µg/mL] | MIC [7, 22] [µg/mL] | MIC (Bacillus cereus Rol79B; read-out: MIC) [µg/mL] | MIC [8, 23] [µg/mL] | MIC (Sarcina lutea IAM1009; [24]) [µg/mL] | LD50 at 72 h (in vivo) [mg/kg] | MIC [4, 28] [µg/mL] | other results
COC(=O)C1c2cc3c(c(O)c2C(OC2CC(N(C)C)C(OC4CC(O)C(OC5CCC(O)C(C)O5)C(C)O4)C(C)O2)CC1(C)O)C(=O)c1c(O)cccc1C3=O (centres unmarked) [Auramycin E] | 1.56 (≈ 1.95 µM) | > 50 | > 50 | 131 | 139 | 158 | 165 | 3.12 (≈ 3.9 µM) | 3.12 (≈ 3.9 µM) | > 50 | 0.39 (≈ 0.488 µM) | > 50 | 3.12 (≈ 3.9 µM) | 20 to 40 | – | MIC [4, 19]: 3.12 µg/mL (≈ 3.9 µM)
COC(=O)C1c2cc3c(c(O)c2C(OC2CC(N(C)C)C(OC4CCC(OC5CCC(O)C(C)O5)C(C)O4)C(C)O2)CC1(C)O)C(=O)c1c(O)cccc1C3=O (centres unmarked) [Auramycin G] | 6.25 (≈ 7.97 µM) | > 50 | > 50 | 102 | 109 | 105 | 119 | 6.25 (≈ 7.97 µM) | 12.5 (≈ 15.9 µM) | > 50 | 0.78 (≈ 0.995 µM) | > 50 | 6.25 (≈ 7.97 µM) | 40 to 80 | – | MIC [4, 19]: 6.25 µg/mL (≈ 7.97 µM)
COC(=O)C1c2cc3c(c(O)c2C(OC2CC(N(C)C)C(OC4CC(O)C(O)C(C)O4)C(C)O2)CC1(C)O)C(=O)c1c(O)cccc1C3=O (centres unmarked) [Auramycin C] | – | > 50 | > 50 | – | – | – | – | – | 6.25 (≈ 9.11 µM) | > 50 | – | > 50 | 6.25 (≈ 9.11 µM) | ~90 | – | MIC ([1]; read-out: MIC): 6.25 µg/mL (≈ 9.11 µM); response vs control in vivo at 1.88 mg/kg (P388 leukaemia; [25]): 135%; response vs control in vivo at 3.75 mg/kg (P388 leukaemia; [25]): 130%; response vs control in vivo at 7.5 mg/kg (P388 leukaemia; [25]): 141%; response vs control in vivo at 15 mg/kg (P388 leukaemia; [25]): 128%; MIC ([5]; ATCC10240, Micrococcus flavus ATCC-10240, Heart infusion agar, read-out: MIC): 6.25 µg/mL (≈ 9.11 µM); MIC [9]: 6.25 µg/mL (≈ 9.11 µM); MIC [10]: 6.25 µg/mL (≈ 9.11 µM); MIC [11]: > 50 µg/mL
COC(=O)C1c2cc3c(c(O)c2C(OC2CC(N(C)C)C(O)C(C)O2)CC1(O)CC(C)=O)C(=O)c1c(O)cccc1C3=O (centres unmarked) [Sulfurmycin D] | 25 (≈ 41.8 µM) | > 50 | > 50 | – | – | – | – | 25 (≈ 41.8 µM) | 12.5 (≈ 20.9 µM) | > 50 | – | > 50 | 25 (≈ 41.8 µM) | ~90 | – | response vs control in vivo at 1.88 mg/kg (P388 leukaemia; [25]): 106%; response vs control in vivo at 3.75 mg/kg (P388 leukaemia; [25]): 135%; response vs control in vivo at 7.5 mg/kg (P388 leukaemia; [25]): 128%; response vs control in vivo at 15 mg/kg (P388 leukaemia; [25]): 152%; MIC [9]: 25 µg/mL (≈ 41.8 µM); MIC ([10]; Mycobacterium smegmatis IFO-13167, Heart infusion agar, read-out: MIC): 6.25 µg/mL (≈ 10.5 µM); MIC [11]: > 50 µg/mL
COC(=O)C1c2cc3c(c(O)c2C(OC2CC(N(C)C)C(OC4CC(O)C(OC5CCC(O)C(C)O5)C(C)O4)C(C)O2)CC1(C)O)C(=O)c1c(O)cccc1C3=O (centres unmarked) [Auramycin F] | – | – | – | – | – | – | – | – | – | – | – | – | – | – | 3.12 (≈ 3.9 µM) | MIC [1]: 3.12 µg/mL (≈ 3.9 µM); MIC [2, 26]: > 50 µg/mL; MIC [3, 27]: > 50 µg/mL; MIC [5, 29]: 3.12 µg/mL (≈ 3.9 µM); MIC [6, 30]: 3.12 µg/mL (≈ 3.9 µM); MIC [7, 31]: > 50 µg/mL; MIC (Bacillus cereus Rol79B): 0.39 µg/mL (≈ 0.488 µM); MIC [8, 32]: > 50 µg/mL; MIC (Sarcina lutea IAM1009; Sarcina lutea IAM-1009): 3.12 µg/mL (≈ 3.9 µM)
COC(=O)C1c2cc3c(c(O)c2C(OC2CC(N(C)C)C(OC4CCC(OC5CCC(O)C(C)O5)C(C)O4)C(C)O2)CC1(O)CC(C)=O)C(=O)c1c(O)cccc1C3=O (centres unmarked) [Sulfurmycin G] | – | – | – | – | – | – | – | – | – | – | 0.39 (≈ 0.472 µM) | – | 12.5 (≈ 15.1 µM) | 40 to 80 | – | MIC ([1]; read-out: MIC): 6.25 µg/mL (≈ 7.57 µM); MIC ([2]; Candida tropicalis, ATCC13803): > 50 µg/mL; MIC ([3]; Candida albicans, ATCC10231): > 50 µg/mL; response vs control in vivo at 1.5 mg/kg (P388 leukaemia; P388, ip): 104%; response vs control in vivo at 3 mg/kg (P388 leukaemia; P388, ip): 112%; response vs control in vivo at 6 mg/kg (P388 leukaemia; P388, ip): 113%; response vs control in vivo at 12 mg/kg (P388 leukaemia; P388, ip): 123%; response vs control in vivo at 24 mg/kg (P388 leukaemia; P388, ip): 144%; MIC ([4]; IFO12993, Staphylococcus epidermidis IFO-12993, read-out: MIC): 12.5 µg/mL (≈ 15.1 µM); MIC ([5]; Micrococcus flavus, ATCC10240): 12.5 µg/mL (≈ 15.1 µM); MIC ([6]; Bacillus subtilis, IAM1027): 6.25 µg/mL (≈ 7.57 µM); MIC ([7]; Escherichia coli, IFO12734): > 50 µg/mL; MIC ([8]; Escherichia coli, IAM1264): > 50 µg/mL
COC(=O)C1c2cc3c(c(O)c2C(OC2CC(N(C)C)C(OC4CC(O)C(OC5CCC(O)C(C)O5)C(C)O4)C(C)O2)CC1(O)CC(C)=O)C(=O)c1c(O)cccc1C3=O (centres unmarked) [Sulfurmycin E] | 3.12 (≈ 3.71 µM) | > 50 | > 50 | 133 | 140 | 150 | 165 | 3.12 (≈ 3.71 µM) | 3.12 (≈ 3.71 µM) | > 50 | 0.39 (≈ 0.463 µM) | > 50 | 3.12 (≈ 3.71 µM) | 20 to 40 | 1.56 (≈ 1.85 µM) | –
COC(=O)C1c2cc3c(c(O)c2C(OC2CC(N(C)C)C(OC4CC(O)C(OC5CCC(O)C(C)O5)C(C)O4)C(C)O2)CC1(O)CC(C)=O)C(=O)c1c(O)cccc1C3=O (centres unmarked) [Sulfurmycin F] | – | – | – | – | – | – | – | – | – | – | – | – | – | – | 12.5 (≈ 14.8 µM) | MIC [1]: 3.12 µg/mL (≈ 3.71 µM); MIC [2, 26]: > 50 µg/mL; MIC [3, 27]: > 50 µg/mL; MIC [5, 29]: 1.56 µg/mL (≈ 1.85 µM); MIC [6, 30]: 3.12 µg/mL (≈ 3.71 µM); MIC [7, 31]: > 50 µg/mL; MIC (Bacillus cereus Rol79B): 0.39 µg/mL (≈ 0.463 µM); MIC [8, 32]: > 50 µg/mL; MIC (Sarcina lutea IAM1009; Sarcina lutea IAM-1009): 1.56 µg/mL (≈ 1.85 µM)
